Measured values reported in patent publication US8927570B2, “1-naphthyl-or 1-dihydroacenaphthenyl-pyrido[B]indoles and uses thereof in treating cancers” (priority 2009, dated 2015).

Assays:
[1] = tested on: HCT116, MCF-7, A549, LNCaP, DU145 and PC-3 cancer cells; test: Flow cytometry, cell cycle kinetics of cancer cells; format: cell-based, human; settings: 15 mM in 0.1% DMSO
Description: (§1) Flow cytometry experiments were performed to show the effects of Compound 19, and anticancer drugs Adriamycin or Camptothecin treatment on the cell cycle kinetics of various human cells (FIGS. 8A-8I and 9A-9I), MCF-7 breast cancer cells (FIGS. 5A-5F), A549 lung cancer cells (FIGS. 7A-7I), LNCaP (FIGS. 10A-10I), DU145 (FIGS. 11A-11I) and PC-3 (FIGS. 12A-12I) prostate cancer cells, as well as cultured normal human fibroblasts (FIGS. 6A-6F). The compound or drugs were applied at a concentration of 15 mM in 0.1% DMSO as the vehicle, and cells incubated for the time point indicated in hours (hr). The control samples were treated with vehicle without compound or drug. Red histograms represent cells in the G1/G0 phase (histogram to the left) and cells in the G2/M phases (histogram to the right). The interval between the G1/G) and G2/M histograms is the S-phase of the cell cycle. The subG1/GO histograms (cyan colored) represent cells undergoing apoptosis (programmed cell death).

[2] = tested on: cultured normal human fibroblasts; test: Flow cytometry, cell cycle kinetics of cultured normal human fibroblasts; format: cell-based; settings: 15 mM in 0.1% DMSO; for selectivity between cancer cells and normal (fibroblast) cells: flow cytometry cell cycle kinetics
Description: as §1

[3] = tested on: HPAC pancreatic cancer cell line; test: In vitro antiproliferative activity, HPAC pancreatic cancer cell line; format: cell-based; settings: Homo sapiens
Description: (§2) Substituted β-carboline compounds 4 to 38 were tested for antiproliferative activity against HCT116 colon cancer cells and HPAC, Mia-PaCa2 and Panc-1 pancreatic cancer cell lines. Table 1 lists the IC50 values for the substituted β-carbolines.
(§3) Substituted β-carbolines and analog compounds 39 to 57 were tested for antiproliferative activity against HPAC, Mia-PaCa2 and Panc-1 pancreatic cancer cell lines and MCF-7 and MDA-MB-468 breast cancer cell lines. Table 2 lists the IC50 values for the substituted β-carbolines and analogs thereof.

[4] = tested on: HCT116 P53 −/−; test: In vitro antiproliferative activity, HCT116 P53 −/− cells; format: cell-based; settings: Homo sapiens, HCT-116, Table 1
Description: as §2

[5] = tested on: HCT116 colon cancer cells; test: In vitro antiproliferative activity, HCT116 colon cancer cells; format: cell-based; settings: Homo sapiens, HCT-116, Table 1
Description: as §2

[6] = tested on: Mia-PaCa2 pancreatic cancer cell line; test: In vitro antiproliferative activity, Mia-PaCa2 pancreatic cancer cell line; format: cell-based; settings: Homo sapiens
Description: as §2, §3

[7] = tested on: Panc-1 pancreatic cancer cell line; test: In vitro antiproliferative activity, Panc-1 pancreatic cancer cell line; format: cell-based, human; settings: Homo sapiens
Description: as §3

[8] = tested on: MDA-MB-468 breast cancer xenografts; test: Antitumor activity in nude mice bearing MDA-MB-468 breast cancer xenografts; format: in vivo; settings: 40 mg/kg i.p., after 18 days
Description: FIGS. 2A-2B illustrate antitumor activity on tumor mass (FIG. 2A) and on body weight (FIG. 2B) of compound 19 treatment in nude mice bearing human MDA-MB-468 breast cancer xenografts.
(§4) Nude mice bearing MDA-MB-468 breast cancer (FIGS. 2A-2B) and Panc-1 pancreatic cancer (FIGS. 3A-3B) xenografts were administered 40 mg/kg i.p. of compound 19 and tumor mass and body weights were measured daily for 18 days compared to a PEG-ethanol-saline control.

[9] = tested on: DU145 prostate cancer xenografts; test: Antitumor activity in nude mice bearing DU145 prostate cancer xenografts; format: in vivo
Description: FIGS. 4A-4B illustrate antitumor activity on tumor growth (FIG. 4A) and on body weight (FIG. 4B) of compound 19 treatment in nude mice bearing human DUI145 prostate cancer xenografts.
Nude mice bearing DU145 prostate cancer xenografts were administered i.p. 10 mg/kg, 20 mg/kg or control of compound 19 and tumor growth (FIG. 4A) and body weight (FIG. 4B) was monitored over 25 days. […]

[10] = tested on: Panc-1 pancreatic cancer xenografts; test: Antitumor activity in nude mice bearing Panc-1 pancreatic cancer xenografts; format: in vivo; settings: 40 mg/kg i.p., after 18 days
Description: FIGS. 3A-3B illustrate antitumor activity on tumor mass (FIG. 3A) and on body weight (FIG. 3B) of compound 19 treatment in nude mice bearing Panc-1 human pancreatic cancer xenografts.
as §4

[11] = tested on: MDA-MB-468 breast cancer cell line; test: In vitro antiproliferative activity, MDA-MB-468 breast cancer cell line; format: cell-based, human; settings: Homo sapiens, Table 2
Description: as §3

[12] = tested on: MCF-7 breast cancer cell line; test: In vitro antiproliferative activity, MCF-7 breast cancer cell line; format: cell-based, human; settings: Homo sapiens, MCF7, Table 2
Description: as §3

Compound | IC50 [11] | IC50 ([3]; Table 2) | IC50 [12] | IC50 ([6]; MIA PaCa-2, Table 2) | IC50 ([7]; Table 2) | also measured
COc1cccc2c1C(=O)c1c(O)c3c(c(O)c1C2=O)C[C@@](O)(C(=O)CO)C[C@@H]3O[C@H]1C[C@H](N)[C@H](O)[C@H](C)O1 [Adriamycin] | – | – | – | – | – | cell cycle arrest mechanism in cancer cells [1]: primarily G1 phase arrest; selectivity between cancer cells and normal (fibroblast) cells [2]: did not show selectivity
CC[C@@]1(O)C(=O)OCc2c1cc1n(c2=O)Cc2cc3ccccc3nc2-1 [Camptothecin] | – | – | – | – | – | cell cycle arrest mechanism in cancer cells [1]: primarily G1 phase arrest; selectivity between cancer cells and normal (fibroblast) cells [2]: did not show selectivity
COc1ccc2[nH]c3c(-c4ccoc4)nccc3c2c1 [Compound 9, 1-Furan-3-yl-6-methoxy-9H-β-carboline] | – | – | – | – | – | IC50 ([3]; Table 1): 45.1 µM; IC50 [4]: 53.7 µM; IC50 [5]: 60.9 µM
COc1ccc2c(c1)[nH]c1c(-c3ccnc4ccccc34)nccc12 [Compound 10, 7-Methoxy-1-quinolin-4-yl-9H-β-carboline] | – | – | – | – | – | IC50 [4]: 18.7 µM; IC50 [5]: 7 µM
COc1ccc2[nH]c3c(-c4ccnc5ccccc45)nccc3c2c1 [Compound 11, 6-Methoxy-1-quinolin-4-yl-9H-β-carboline] | – | – | – | – | – | IC50 ([3]; Table 1): 0.56 µM; IC50 [4]: 0.46 µM; IC50 ([6]; MIA PaCa-2, Table 1): 0.49 µM; IC50 [5]: 0.51 µM; IC50 ([7]; Table 1): 0.58 µM
COc1ccc2[nH]c3c(-c4cccc5ccccc45)nccc3c2c1 [Compound 19, 6-Methoxy-1-naphthalen-1-yl-9H-β-carboline] | – | – | – | – | – | body weight [8]: nor had body weight decreased; tumor mass ([8]; vs PEG-ethanol-saline control): had not increased; cell cycle arrest mechanism in cancer cells [1]: G2/M arrest mechanism(s); IC50 ([3]; Table 1): 0.29 µM; IC50 ([6]; MIA PaCa-2, Table 1): 0.2 µM; IC50 [5]: 0.13 µM; body weight ([9]; 10 mg/kg and 20 mg/kg i.p., over 25 days): remained fairly constant; percent of tumor growth ([9]; 10 mg/kg i.p., at about day 7): less than control; rate of tumor growth ([9]; 10 mg/kg i.p., over the 25 days): about equivalent to that of control; tumor growth ([9]; 20 mg/kg i.p., over 25 days): significant decrease in tumor growth compared to 10 mg/kg and control; body weight [10]: nor had body weight decreased; tumor mass ([10]; vs PEG-ethanol-saline control): had not increased; perturbation of the cell cycle of normal human cells ([2]; normal human fibroblasts): no significant perturbation; IC50 ([7]; Table 1): 0.29 µM
Cc1ccc2[nH]c3c(-c4cccc5c(Br)cccc45)nccc3c2c1 [Compound 46, 1-(5-bromonaphthalen-1-yl)-6-methyl-9H-pyrido[3,4-b]indole] | > 50 µM | > 50 µM | > 50 µM | 41.7 µM | > 50 µM | –
Clc1ccc2sc3c(-c4cccc5ccccc45)nccc3c2c1 [Compound 48, 6-Chloro-1-(naphthalen-1-yl)benzo[4,5]thieno[2,3-c]pyridine] | 6.05 µM | 50 µM | 48.6 µM | 13.5 µM | > 50 µM | –
c1ccc2c(-c3nccc4c3oc3ccccc34)cccc2c1 [Compound 49, 1-(naphthalen-1-yl)benzofuro[2,3-c]pyridine] | 50 µM | > 50 µM | > 50 µM | 33.6 µM | > 50 µM | –
c1ccc2c(-c3nccc4c3sc3ccccc34)cccc2c1 [Compound 50, 1-(Naphthalen-1-yl)benzo[4,5]thieno[2,3-c]pyridine] | 14.7 µM | > 50 µM | > 50 µM | > 50 µM | > 50 µM | –
Cc1ccc2[nH]c3c(-c4cccc5ccccc45)nccc3c2c1 [Compound 51, 6-Methyl-1-(naphthalen-1-yl)-9H-pyrido[3,4-b]indole] | 6.54 µM | > 50 µM | 6.78 µM | 13.1 µM | > 50 µM | –
FC(F)(F)Oc1ccc2[nH]c3c(-c4cccc5ccccc45)nccc3c2c1 [Compound 52, 1-(Naphthalen-1-yl)-6-(trifluoromethoxy)-9H-pyrido[3,4-b]indole] | 4.99 µM | 35.5 µM | 7.61 µM | 8.63 µM | > 50 µM | –
N#Cc1ccc2[nH]c3c(-c4cccc5ccccc45)nccc3c2c1 [Compound 53, 1-(Naphthalen-1-yl)-9H-pyrido[3,4-b]indole-6-carbonitrile] | 30.2 µM | 50 µM | > 50 µM | 40.4 µM | > 50 µM | –
Brc1ccc2[nH]c3c(-c4cccc5ccccc45)nccc3c2c1 [Compound 54, 6-Bromo-1-(naphthalen-1-yl)-9H-pyrido[3,4-b]indole] | 5.09 µM | 10.9 µM | 11.4 µM | 26.2 µM | 30.3 µM | –
CCOC(=O)c1cc2c([nH]c3ccc(OC)cc32)c(-c2cccc3ccccc23)n1 [Compound 55, Ethyl-6-methoxy-1-(naphthalen-1-yl)-9H-pyrido[3,4-b]indole-3-carboxylate] | 5.67 µM | 12.9 µM | 17.6 µM | 17.5 µM | 23.3 µM | –
Cn1c2ccccc2c2ccnc(-c3cccc4ccccc34)c21 [Compound 56, 9-Methyl-1-(naphthalen-1-yl)-9H-pyrido[3,4-b]indole] | 14.2 µM | 21.2 µM | 50.8 µM | 37.4 µM | 33.9 µM | –
COc1ccc2c(c1)c1ccnc(-c3cccc4ccccc34)c1n2C [Compound 57, 6-Methoxy-9-methyl-1-(naphthalen-1-yl)-9H-pyrido[3,4-b]indole] | 17.8 µM | 44.2 µM | 52 µM | 34 µM | 41.3 µM | –
